Patent publication US20040110727A1, “Aldehyde-releasing compounds” (priority 2000, published 2004)
Read-outs that look alike come from different tables or passages of the source.

Legend:
[1] = tested on: genomic DNA of IMR-32 cells; conditions: for adduct levels compared to Adriamycin alone / relative effectiveness in activating adduct formation: 4 μM [14C] Adriamycin simultaneously with 100 μM aldehyde-releasing compound
Protocol: IMR-32 cells were seeded into 3.5 cm petri dishes at a density of 7.5×10^5 cells/dish 24 hr prior to exposure to 41M [^14C]-Adriamycin for 4 hr. In other treatments 100 μM AN-9 was added at varying times: 2 hr prior to Adriamycin addition (−2); simultaneously (O); and 2 hr after Adriamycin (2). Cells were harvested, and the genomic DNA was isolated. Samples were then extracted twice with phenol and once with chloroform, and DNA was selectively precipitated from RNA by ammonium acetate precipitation. DNA pellets were resuspended in 100 μL TE buffer, and the concentration determined spectrophotometically at 260 nm. Aliquots of the genomic DNA (50 μL) were each added to 1 mL of Optiphase Hisafe scintillation cocktail, and the incorporation of [^14C]-labelled drug into the DNA was monitored using a Wallac 1410 Liquid Scintillation Counter.
IMR-32 cells were exposed to 6 μM [^14C]-Adriamycin alone (Adr) for 4 hr, or together with 125 μl AN-9 at varying times: 16 hr prior (−16), 2 hr prior (−2), simultaneously (0), and 2 hr after Adriamycin addition (2). […] Genomic DNA was extracted from the cells, and incorporation of radiolabelled drug was determined by scintillation counting to determine the level of [^14C] adducts per 10 kb.
Therefore, IMR-32 cells were treated with 4 μM [^14C] Adriamycin and were simultaneously treated with 100 μM of selected aldehyde-releasing compound. Cells were harvested, genomic DNA was extracted and scintillation analyses were performed as described above.
To test whether a greater fraction of Adriamycin can be utilized for adduct formation when the amount of available formaldehyde is increased, the concentration dependence of AN-9 was investigated. IMR-32 cells were treated with [^14C] Adriamycin at a constant concentration of 4 μM. AN-9 was added 2 hr after Adriamycin at concentrations ranging from 4 μM (1:1) to 500 μM (1:125), and the treatment continued for a further 2 hr. Cells were harvested, DNA was extracted and samples were analysed for incorporation of [^14C].
Adducts (lesions/10 kb) were determined by incubating IMR-32 cells in the presence of 2 μM [^14C]Adriamycin for 2 hr. followed by an additional 2 hr in the presence or absence of 100 μM AN-9. Semi-carbazide addition was at the same time as Adriamycin (ie 2 hr before AN-9). However, values in parentheses indicate that semi-carbazide addition was at the same time as AN-9 treatment (ie 2 hr after Adriamycin).
Adriamycin for 4 hr. These were simultaneously incubated with the indicated aldehyde-releasing compound at a final concentration of 100 μM. Samples were harvested as indicated previously and DNA was assessed for incorporation of radioactively labelled Adriamycin.

[2] = tested on: mitochondrial genome and DHFR gene of IMR-32 cells; assay: Gene-specific Southern hybridisation assay of DNA adducts / virtual crosslinks; type: cell-based, human; conditions: for level of DNA adducts (percentage of double stranded DNA): IMR-32, Adriamycin alone, or Adriamycin with 25-fold excess of AN-9 (added 2 hr after or 2 hr before)
Protocol: We sought to investigate the level of DNA adducts formed under various treatment conditions, since we speculated that the peculiar effectiveness of the Adriamycin/AN-9 combination might be due to increased levels of DNA damage in the form of DNA adducts. IMR-32 human neuroblastoma cells (A and B) and MCF-7 human breast adenocarcinoma cells (C and D) were treated with Adriamycin for 2 hr ([…] as shown) followed by a further 2 hr incubation with a 25-fold excess of AN-9 (▪), or treated with AN-9 for 2 hr followed by a further 4 hr incubation with Adriamycin (□). Genomic DNA was isolated using mild conditions (Cutts et al., 2001) and subjected to gene-specific Southern hybridisation analysis. For detection of the mitochondrial genome, DNA was restriction digested with BamHI, and unreacted or intercalated drug was removed by phenol/chloroform extraction and ethanol precipitation. Samples were resuspended in 60% formamide and heat denatured at 60° C. for 5 min. Samples were resolved electrophoretically through 0.8% agarose, transferred to nylon membranes and probed with mitochondrial RNA. The percentage of double stranded DNA was calculated by phosphorimage analysis; this correlates with adduct formation in the mitochondrial genome (A and C), since the adducts behave functionally as virtual interstrand crosslinks (Zeman et al., 1998; Cullinane et al., 2000). For detection of the DHFR gene, DNA was digested with HindIII and processed as described above; however, randomly primed DHFR DNA was used as the probe for Southern analysis (B and D). Data were derived from each of two separate blots of two biological experiments, and the values are represented as the mean±SE. […] This provides a biochemical basis for the synergistic/antagonistic cytotoxicity relationship.
It was known that the formation of Adriamycin adducts was highly time-dependent. To confirm that the adducts behave as classical Adriamycin adducts, and also to investigate the optimal conditions for adduct formation, a time course study was initiated. IMR-32 cells were treated with a combination of 4 μM Adriamycin and 100 μM AN-9 for 0-8 hr as described above. Phosphorimage analysis was used to quantitate the time-dependent formation of adducts in the mitochondrial genome (A) and DHFR gene (B).
In order to gain some understanding as to why synergy was greatest when AN-9 was added at the same time as, or after, Adriamycin, a time course of addition of AN-9 was studied. IMR-32 cells were exposed to 4 μM Adriamycin for 4 hr. […] Adduct/crosslinking levels are shown in FIG. 3 for both mitochondrial (A) and nuclear (B) DNA, using probes for mtDNA and the DHFR gene respectively. Phosphorimage analysis was used to quantitate the fraction of DS DNA, a measure of adduct formation, for each treatment condition. Adduct formation fluctuated greatly, and depended on a relatively small time frame within which AN-9 was added to cells. […] This enabled us to predict that if AN-9 was added shortly after Adriamycin in cytotoxicity assays, within say approximately 2 hr, then the Combination Index obtained would be even better than when the drugs were added simultaneously.
IMR-32 cells were exposed to Adriamycin (6 μm) for 4 hr, and AN-9 (125 μM) was added at varying times from 24 hr prior to Adriamycin addition (−24) to 2 hr after Adriamycin. Genomic DNA was extracted from cells and then processed for Southern analysis. Phosphorimage analysis was used for quantitation of the adducts in mtDNA (A) and the DHFR gene (B), and the results are shown in FIG. 4.

[3] = tested on: mitochondrial genome and DHFR gene of MCF-7 cells; assay: as above; type: cell-based, human; conditions: Adriamycin alone, or Adriamycin with 25-fold excess of AN-9 (added 2 hr after or 2 hr before)
Protocol: We sought to investigate the level of DNA adducts formed under various treatment conditions, since we speculated that the peculiar effectiveness of the Adriamycin/AN-9 combination might be due to increased levels of DNA damage in the form of DNA adducts. IMR-32 human neuroblastoma cells (A and B) and MCF-7 human breast adenocarcinoma cells (C and D) were treated with Adriamycin for 2 hr ([…] as shown) followed by a further 2 hr incubation with a 25-fold excess of AN-9 (▪), or treated with AN-9 for 2 hr followed by a further 4 hr incubation with Adriamycin (□). Genomic DNA was isolated using mild conditions (Cutts et al., 2001) and subjected to gene-specific Southern hybridisation analysis. For detection of the mitochondrial genome, DNA was restriction digested with BamHI, and unreacted or intercalated drug was removed by phenol/chloroform extraction and ethanol precipitation. Samples were resuspended in 60% formamide and heat denatured at 60° C. for 5 min. Samples were resolved electrophoretically through 0.8% agarose, transferred to nylon membranes and probed with mitochondrial RNA. The percentage of double stranded DNA was calculated by phosphorimage analysis; this correlates with adduct formation in the mitochondrial genome (A and C), since the adducts behave functionally as virtual interstrand crosslinks (Zeman et al., 1998; Cullinane et al., 2000). […]

HL-60 cells = conditions: cited from earlier work
IMR-32 cells = assay: Cell viability assay, relative survival with semi-carbazide; type: cell-based, human; conditions: IC50 relative to Adriamycin alone; 72 hr; presence or absence of 50 μM AN-9; no semi-carbazide
Protocol: To obtain data representing relative survival, cells were seeded at a density of 1×10^4 per well and exposed to increasing concentrations of Adriamycin in the presence or absence of 50 μM AN-9 and/or semi-carbazide (0.25, 0.5 or 1.0 mM as indicated) for 72 hr. IC50 values for various combinations are shown as relative survival compared to Adriamycin alone. […] Overall, the critical role of formaldehyde was confirmed by reversal of formaldehyde-mediated effects by semi-carbazide, which reduced adduct formation and also abolished the cytotoxicity resulting from the interaction of AN-9 with Adriamycin.

DNA = conditions: cited from earlier work
[4] = 4 μM [14C] Adriamycin, 500 μM AN-9 (1:125) added 2 hr after
[5] = 6 μM [14C]-Adriamycin 4 hr, AN-9 16 hr prior to Adriamycin

CCCC(=O)OCOP(=O)(OCC)OCC [AN-7, Butyroyloxymethyldiethyl Phosphate]
adduct levels compared to Adriamycin alone [1]: enhanced adduct levels | relative effectiveness in activating adduct formation [1]: good activity

CCCC(=O)OCOC(=O)C(C)(C)C [AN-9, Pivaloyloxymethyl Butyrate]
adduct/crosslinking levels ([2]; 4 μM Adriamycin 4 hr, 100 μM AN-9 added shortly after Adriamycin, compared with simultaneous addition): greatly enhanced levels of adducts | enhancement of adduct levels ([2]; Adriamycin (6 μm) 4 hr, AN-9 (125 μM) administered 5-24 hr prior to Adriamycin): no enhancement of adduct levels | level of DNA adducts (percentage of double stranded DNA) [2]: dramatic increases in the level of DNA adducts | effect on the ability of barminomycin to induce DNA crosslinks ([2]; barminomycin 0-20 nM, 12,500-fold excess of AN-9, added after or 2 hr before barminomycin): no effect | adduct levels compared to Adriamycin alone [1]: enhanced adduct levels | relative effectiveness in activating adduct formation [1]: most effective | total Adriamycin added to cells incorporated into DNA adducts ([1]; 4 μM [14C] Adriamycin, 500 μM AN-9): approximately 5% | adduct levels relative to the 1:20-1:25 ratio [1, 4]: approximately 10 fold | potentiation of Adriamycin adduct levels [1, 4]: approximately 100 fold | Adriamycin adducts ([1]; 4 μM [14C] Adriamycin, AN-9 added 2 hr after, further 2 hr, Adriamycin:AN-9 1:20-1:25): 10 adducts per 10 kb | enhancement of adduct formation ([1]; 4 μM [14C] Adriamycin, AN-9 added 2 hr after, Adriamycin:AN9 1:1-1:5): poor | levels of Adriamycin adducts [1, 5]: 1.7 /10 kb | loss of adducts compared to Adriamycin alone [1, 5]: 40% | enhancement of adducts compared to Adriamycin alone ([1]; 6 μM [14C]-Adriamycin 4 hr, AN-9 added 2 hr after Adriamycin): approximately 20 fold | level of Adriamycin adducts ([1]; 41M [14C]-Adriamycin 4 hr, 100 μM AN-9 2 hr after Adriamycin): ~24 per 10 kb | level of Adriamycin adducts ([1]; 41M [14C]-Adriamycin 4 hr, 100 μM AN-9 2 hr prior to Adriamycin): ~3.5 per 10 kb | potentiation of the level of Adriamycin adducts ([1]; 41M [14C]-Adriamycin 4 hr, 100 μM AN-9, vs Adriamycin alone): up to 15 fold | level of Adriamycin adducts ([1]; 41M [14C]-Adriamycin 4 hr, 100 μM AN-9 simultaneously): approximately 12 per 10 kb | level of DNA adducts (percentage of double stranded DNA) [3]: dramatic increases in the level of DNA adducts | histone acetylation (HL-60 cells): induce histone acetylation | time after exposure at which basal level of acetylation is re-established (HL-60 cells): 6 h

CCCC(=O)OC(C)OP(=O)(OCC)OCC (stereo not drawn) [AN-88, 1-Butyroyloxyethyldiethyl Phosphate]
adduct levels compared to Adriamycin alone [1]: reinforced the concept that it was the released formaldehyde which was solely responsible for increased adduct formation

CCC(=O)OC(C)OC(=O)CC [AN-188, Ethylidene Dipropionate]
adduct levels compared to Adriamycin alone [1]: reinforced the concept that it was the released formaldehyde which was solely responsible for increased adduct formation

COc1cccc2c1C(=O)c1c(O)c3c(c(O)c1C2=O)C[C@@](O)(C(=O)CO)C[C@@H]3O[C@H]1C[C@H](N)[C@H](O)[C@H](C)O1 [Adriamycin, reference compound]
Relative survival (IMR-32 cells): 1.00 ± 0.12 | level of DNA adducts (percentage of double stranded DNA) [2]: no adducts were detected | levels of Adriamycin adducts ([1]; 6 μM [14C]-Adriamycin alone 4 hr): 2.8 /10 kb | level of Adriamycin adducts ([1]; 41M [14C]-Adriamycin 4 hr, absence of AN-9): approximately 1.5 per 10 kb | level of DNA adducts (percentage of double stranded DNA) [3]: no adducts were detected | half-life of Adriamycin adducts (DNA): 5 to 40 h

CCCC(=O)O [Butyric acid, reference compound]
increase in Adriamycin adduct levels ([1]; 6 μM [14C]-Adriamycin 4 hr, sodium butyrate (1 mM) 16 hr prior, 2 hr prior, simultaneously or 2 hr after): no significant increases in adduct levels

C1N2CN3CN1CN(C2)C3 [hexamethylenetetramine, reference compound]
facilitation of Adriamycin adduct formation ([2]; 15 μM Adriamycin, 4 hr later 0-2.5 mM hexamethylenetetramine, harvested after 8 hr): not as effective as AN-9
